Several values for one entry are separate records, joined by “and”; a condition that tells them apart may be missing. Equal entries are not always repeated.
What was measured:
CCRF-CEM = experiment: NCI-60 one-dose SRB screen (Leukemia); format: cell-based; details: Homo sapiens, single dose 10 µM, 48 h, read-out: Growth inhibition percent (GI %)
HL-60(TB) = experiment: NCI-60 one-dose SRB screen (Leukemia); format: cell-based; details: Homo sapiens, single dose 10 µM, 48 h, read-out: Growth inhibition percent (GI %)
K-562 = experiment: NCI-60 one-dose SRB screen (Leukemia); format: cell-based; details: Homo sapiens, K562, single dose 10 µM, 48 h, read-out: Growth inhibition percent (GI %)
MOLT-4 = experiment: NCI-60 one-dose SRB screen (Leukemia); format: cell-based; details: Homo sapiens, single dose 10 µM, 48 h, read-out: Growth inhibition percent (GI %)
RPMI-8226 = experiment: NCI-60 one-dose SRB screen (Leukemia); format: cell-based; details: Homo sapiens, single dose 10 µM, 48 h, read-out: Growth inhibition percent (GI %)
SR = experiment: NCI-60 one-dose SRB screen (Leukemia); format: cell-based; details: Homo sapiens, single dose 10 µM, 48 h, read-out: Growth inhibition percent (GI %)
COLO 205 = experiment: NCI-60 one-dose SRB screen (Colon Cancer); format: cell-based; details: Homo sapiens, single dose 10 µM, 48 h, read-out: Growth inhibition percent (GI %)
HCC-2998 = experiment: NCI-60 one-dose SRB screen (Colon Cancer); format: cell-based; details: Homo sapiens, single dose 10 µM, 48 h, read-out: Growth inhibition percent (GI %)
HCT-116 = experiment: NCI-60 one-dose SRB screen (Colon Cancer); format: cell-based; details: Homo sapiens, single dose 10 µM, 48 h, read-out: Growth inhibition percent (GI %)
HCT-15 = experiment: NCI-60 one-dose SRB screen (Colon Cancer); format: cell-based; details: Homo sapiens, single dose 10 µM, 48 h, read-out: Growth inhibition percent (GI %)
HT29 = experiment: NCI-60 one-dose SRB screen (Colon Cancer); format: cell-based; details: Homo sapiens, HT-29, single dose 10 µM, 48 h, read-out: Growth inhibition percent (GI %)
KM12 = experiment: NCI-60 one-dose SRB screen (Colon Cancer); format: cell-based; details: Homo sapiens, single dose 10 µM, 48 h, read-out: Growth inhibition percent (GI %)
SW-620 = experiment: NCI-60 one-dose SRB screen (Colon Cancer); format: cell-based; details: Homo sapiens, single dose 10 µM, 48 h, read-out: Growth inhibition percent (GI %)
LOX IMVI = experiment: NCI-60 one-dose SRB screen (Melanoma); format: cell-based; details: Homo sapiens, single dose 10 µM, 48 h, read-out: Growth inhibition percent (GI %)
M14 = experiment: NCI-60 one-dose SRB screen (Melanoma); format: cell-based; details: Homo sapiens, single dose 10 µM, 48 h, read-out: Growth inhibition percent (GI %)
MALME-3M = experiment: NCI-60 one-dose SRB screen (Melanoma); format: cell-based; details: Homo sapiens, single dose 10 µM, 48 h, read-out: Growth inhibition percent (GI %)
MDA-MB-435 = experiment: NCI-60 one-dose SRB screen (Melanoma); format: cell-based; details: Homo sapiens, single dose 10 µM, 48 h, read-out: Growth inhibition percent (GI %)
SK-MEL-28 = experiment: NCI-60 one-dose SRB screen (Melanoma); format: cell-based; details: Homo sapiens, single dose 10 µM, 48 h, read-out: Growth inhibition percent (GI %)
SK-MEL-2 = experiment: NCI-60 one-dose SRB screen (Melanoma); format: cell-based; details: Homo sapiens, single dose 10 µM, 48 h, read-out: Growth inhibition percent (GI %)
SK-MEL-5 = experiment: NCI-60 one-dose SRB screen (Melanoma); format: cell-based; details: Homo sapiens, single dose 10 µM, 48 h, read-out: Growth inhibition percent (GI %)
UACC-257 = experiment: NCI-60 one-dose SRB screen (Melanoma); format: cell-based; details: Homo sapiens, single dose 10 µM, 48 h, read-out: Growth inhibition percent (GI %)
UACC-62 = experiment: NCI-60 one-dose SRB screen (Melanoma); format: cell-based; details: Homo sapiens, single dose 10 µM, 48 h, read-out: Growth inhibition percent (GI %)
IGROV1 = experiment: NCI-60 one-dose SRB screen (Ovarian cancer); format: cell-based; details: Homo sapiens, IGROV-1, single dose 10 µM, 48 h, read-out: Growth inhibition percent (GI %)
NCI/ADR-RES = experiment: NCI-60 one-dose SRB screen (Ovarian cancer); format: cell-based; details: Homo sapiens, single dose 10 µM, 48 h, read-out: Growth inhibition percent (GI %)
OVCAR-3 = experiment: NCI-60 one-dose SRB screen (Ovarian cancer); format: cell-based; details: Homo sapiens, single dose 10 µM, 48 h, read-out: Growth inhibition percent (GI %)
OVCAR-4 = experiment: NCI-60 one-dose SRB screen (Ovarian cancer); format: cell-based; details: Homo sapiens, single dose 10 µM, 48 h, read-out: Growth inhibition percent (GI %)
OVCAR-8 = experiment: NCI-60 one-dose SRB screen (Ovarian cancer); format: cell-based; details: Homo sapiens, single dose 10 µM, 48 h, read-out: Growth inhibition percent (GI %)
786-0 = experiment: NCI-60 one-dose SRB screen (Renal Cancer); format: cell-based; details: Homo sapiens, single dose 10 µM, 48 h, read-out: Growth inhibition percent (GI %)
A498 = experiment: NCI-60 one-dose SRB screen (Renal Cancer); format: cell-based; details: Homo sapiens, single dose 10 µM, 48 h, read-out: Growth inhibition percent (GI %)
ACHN = experiment: NCI-60 one-dose SRB screen (Renal Cancer); format: cell-based; details: Homo sapiens, single dose 10 µM, 48 h, read-out: Growth inhibition percent (GI %)
CAKI-1 = experiment: NCI-60 one-dose SRB screen (Renal Cancer); format: cell-based; details: Homo sapiens, single dose 10 µM, 48 h, read-out: Growth inhibition percent (GI %)
RXF 393 = experiment: NCI-60 one-dose SRB screen (Renal Cancer); format: cell-based; details: Homo sapiens, single dose 10 µM, 48 h, read-out: Growth inhibition percent (GI %)
SN12C = experiment: NCI-60 one-dose SRB screen (Renal Cancer); format: cell-based; details: Homo sapiens, single dose 10 µM, 48 h, read-out: Growth inhibition percent (GI %)
TK-10 = experiment: NCI-60 one-dose SRB screen (Renal Cancer); format: cell-based; details: Homo sapiens, single dose 10 µM, 48 h, read-out: Growth inhibition percent (GI %)
UO-31 = experiment: NCI-60 one-dose SRB screen (Renal Cancer); format: cell-based; details: Homo sapiens, single dose 10 µM, 48 h, read-out: Growth inhibition percent (GI %)
DU-145 = experiment: NCI-60 one-dose SRB screen (Prostate Cancer); format: cell-based; details: Homo sapiens, single dose 10 µM, 48 h, read-out: Growth inhibition percent (GI %)
PC-3 = experiment: NCI-60 one-dose SRB screen (Prostate Cancer); format: cell-based; details: Homo sapiens, single dose 10 µM, 48 h, read-out: Growth inhibition percent (GI %)
BT-549 = experiment: NCI-60 one-dose SRB screen (Breast Cancer); format: cell-based; details: Homo sapiens, single dose 10 µM, 48 h, read-out: Growth inhibition percent (GI %)
HS 578T = experiment: NCI-60 one-dose SRB screen (Breast Cancer); format: cell-based; details: Homo sapiens, single dose 10 µM, 48 h, read-out: Growth inhibition percent (GI %)
MCF-7 = experiment: NCI-60 one-dose SRB screen (Breast Cancer); format: cell-based; details: Homo sapiens, MCF7, single dose 10 µM, 48 h, read-out: Growth inhibition percent (GI %)
MDA-MB-231/ATCC = experiment: NCI-60 one-dose SRB screen (Breast Cancer); format: cell-based; details: Homo sapiens, single dose 10 µM, 48 h, read-out: Growth inhibition percent (GI %)
MDA-MB-468 = experiment: NCI-60 one-dose SRB screen (Breast Cancer); format: cell-based; details: Homo sapiens, single dose 10 µM, 48 h, read-out: Growth inhibition percent (GI %)
T-47D = experiment: NCI-60 one-dose SRB screen (Breast Cancer); format: cell-based; details: Homo sapiens, T47D, single dose 10 µM, 48 h, read-out: Growth inhibition percent (GI %)
hCA IX = hCA IX (Homo sapiens, UniProt Q16790); experiment: CA inhibitory activity, spectrophotometric p-NPA assay; format: biochemical; details: for IC50: p-NPA substrate, pH 7.5, 25 °C, triplicate, read-out: IC50 (µM) ± SD hCA IX
hCA XII = hCA XII (Homo sapiens, UniProt O43570); experiment: as above; format: biochemical; details: p-NPA substrate, pH 7.5, 25 °C, triplicate; read-out: IC50 (µM) ± SD hCA XII
hCA XII, sequence (O43570 25-354): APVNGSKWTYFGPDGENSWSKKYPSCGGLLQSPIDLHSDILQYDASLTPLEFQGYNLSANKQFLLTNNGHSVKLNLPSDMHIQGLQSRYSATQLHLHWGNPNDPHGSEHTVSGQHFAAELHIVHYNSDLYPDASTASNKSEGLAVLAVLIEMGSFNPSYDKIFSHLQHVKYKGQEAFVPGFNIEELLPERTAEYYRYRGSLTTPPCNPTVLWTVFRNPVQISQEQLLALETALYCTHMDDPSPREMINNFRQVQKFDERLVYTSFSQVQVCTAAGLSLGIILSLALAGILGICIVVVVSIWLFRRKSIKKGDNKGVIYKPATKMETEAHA

CCOC(=O)c1ccc(NC(=O)COC(=O)c2cn(-c3ccc(S(N)(=O)=O)cc3)nc2-c2ccc(S(C)(=O)=O)cc2)cc1 [Compound 5e, 2-[(4-(Ethoxycarbonyl)phenyl)amino]-2-oxoethyl 3-(4-(methylsulfonyl)phenyl)-1-(4-sulfamoylphenyl)-1H-pyrazole-4-carboxylate]
inhibition at 10 µM (CCRF-CEM): 9.47% | inhibition at 10 µM (HL-60(TB)): 6.26% | inhibition at 10 µM (K-562): 9.58% | inhibition at 10 µM (MOLT-4): < 5% | inhibition at 10 µM (RPMI-8226): 6.03% | inhibition at 10 µM (SR): 22.1% | inhibition at 10 µM (COLO 205): < 5% | inhibition at 10 µM (HCC-2998): < 5% | inhibition at 10 µM (HCT-116): < 5% | inhibition at 10 µM (HCT-15): < 5% | inhibition at 10 µM (HT29): < 5% | inhibition at 10 µM (KM12): < 5% | inhibition at 10 µM (SW-620): < 5% | inhibition at 10 µM (LOX IMVI): 11.6% | inhibition at 10 µM (M14): < 5% | inhibition at 10 µM (MALME-3M): < 5% | inhibition at 10 µM (MDA-MB-435): < 5% | inhibition at 10 µM (SK-MEL-28): < 5% | inhibition at 10 µM (SK-MEL-2): < 5% | inhibition at 10 µM (SK-MEL-5): < 5% | inhibition at 10 µM (UACC-257): < 5% | inhibition at 10 µM (UACC-62): 15.8% | inhibition at 10 µM (IGROV1): < 5% | inhibition at 10 µM (NCI/ADR-RES): < 5% | inhibition at 10 µM (OVCAR-3): < 5% | inhibition at 10 µM (OVCAR-4): 12.3% | inhibition at 10 µM (OVCAR-8): < 5% | inhibition at 10 µM (786-0): 13.2% | inhibition at 10 µM (A498): 19.7% | inhibition at 10 µM (ACHN): 8.32% | inhibition at 10 µM (CAKI-1): 30.8% | inhibition at 10 µM (RXF 393): < 5% | inhibition at 10 µM (SN12C): 7.85% | inhibition at 10 µM (TK-10): < 5% | inhibition at 10 µM (UO-31): 21.9% | inhibition at 10 µM (DU-145): < 5% | inhibition at 10 µM (PC-3): < 5% | inhibition at 10 µM (BT-549): 18.9% | inhibition at 10 µM (HS 578T): 23.7% | inhibition at 10 µM (MCF-7): 6.56% | inhibition at 10 µM (MDA-MB-231/ATCC): < 5% | inhibition at 10 µM (MDA-MB-468): 20.3% | inhibition at 10 µM (T-47D): 19.1% | Ki (hCA IX): 40 nM | IC50 (hCA IX): 0.04 ± 0.002 µM | IC50 (hCA XII): 0.16 µM and 0.167 µM

NS(=O)(=O)c1ccc(-n2cc(C(=O)OCC(=O)Nc3nnc(S(N)(=O)=O)s3)c(-c3ccccc3)n2)cc1 [Compound 6a, 2-Oxo-2-[(5-sulfamoyl-1,3,4-thiadiazol-2-yl)amino] ethyl 3-phenyl-1-(4-sulfamoylphenyl)-1H-pyrazole-4-carboxylate]
inhibition at 10 µM (CCRF-CEM): < 5% | inhibition at 10 µM (HL-60(TB)): < 5% | inhibition at 10 µM (K-562): < 5% | inhibition at 10 µM (MOLT-4): < 5% | inhibition at 10 µM (RPMI-8226): < 5% | inhibition at 10 µM (SR): 17% | inhibition at 10 µM (COLO 205): < 5% | inhibition at 10 µM (HCC-2998): < 5% | inhibition at 10 µM (HCT-116): < 5% | inhibition at 10 µM (HCT-15): < 5% | inhibition at 10 µM (HT29): < 5% | inhibition at 10 µM (KM12): < 5% | inhibition at 10 µM (SW-620): < 5% | inhibition at 10 µM (LOX IMVI): 8.67% | inhibition at 10 µM (M14): < 5% | inhibition at 10 µM (MALME-3M): < 5% | inhibition at 10 µM (MDA-MB-435): < 5% | inhibition at 10 µM (SK-MEL-28): < 5% | inhibition at 10 µM (SK-MEL-2): < 5% | inhibition at 10 µM (SK-MEL-5): < 5% | inhibition at 10 µM (UACC-257): < 5% | inhibition at 10 µM (UACC-62): 17.7% | inhibition at 10 µM (IGROV1): < 5% | inhibition at 10 µM (NCI/ADR-RES): < 5% | inhibition at 10 µM (OVCAR-3): < 5% | inhibition at 10 µM (OVCAR-4): < 5% | inhibition at 10 µM (OVCAR-8): < 5% | inhibition at 10 µM (A498): < 5% | inhibition at 10 µM (ACHN): 6.63% | inhibition at 10 µM (CAKI-1): 7.52% | inhibition at 10 µM (RXF 393): < 5% | inhibition at 10 µM (SN12C): < 5% | inhibition at 10 µM (TK-10): < 5% | inhibition at 10 µM (UO-31): 12.6% | inhibition at 10 µM (DU-145): < 5% | inhibition at 10 µM (PC-3): < 5% | inhibition at 10 µM (BT-549): < 5% | inhibition at 10 µM (HS 578T): 5.52% | inhibition at 10 µM (MCF-7): 22.6% | inhibition at 10 µM (MDA-MB-231/ATCC): 9.95% | inhibition at 10 µM (MDA-MB-468): < 5% | inhibition at 10 µM (T-47D): < 5% | IC50 (hCA IX): 0.591 ± 0.028 µM | IC50 (hCA XII): 0.35 µM and 0.358 µM

From PMC12454493, “Insight on novel sulfamoylphenyl pyrazole derivatives as anticancer carbonic anhydrase inhibitors” (Molecular Diversity, 2024)
